Experimental data from patent US20260355199A1, “COMPOSITIONS AND METHODS FOR TREATING OR PREVENTING NONALCOHOLIC STEATOHEPATITIS (NASH), ANOREXIA, DEPRESSION, ENDOMETRIOSIS, AND OTHER DISEASES OR DISORDERS” (priority 2022, published 2026).
“Also recorded” adds a separate entry of the source.

How the values were obtained:
murine model of NASH = assay: High fat high sugar diet-induced murine model of NASH; format: in vivo, mouse; conditions: for fasting glucose / glucose tolerance: week 12; for plasma AST: week 13
Experimental: As TET3-positive macrophages were also detected in human NASH (FIG. 24B), studies were performed to investigate whether depleting these macrophages would reduce NASH progression. Despite the high efficiency (up to 90%) of the LysM-cre strain in manipulating macrophages originated from myeloid progenitors including those in the peritoneal cavity, peripheral blood and bone marrow, only ~40% of tissue resident macrophages derived from yolk sac (e.g., those in the liver and the spleen red pulp) were affected (Shi et al., 2018, Methods Mol Biol, 1784:263-275). While the inefficacy of the LysM-cre strain in depleting tissue resident macrophages has precluded using the Mye-Tet3 ko mice, potential effects of Bobcat339 in steatosis, inflammation, and fibrosis were assessed using a high fat high sugar diet-induced murine model of NASH (Ishimoto et al., 2013, Hepatology, 58:1632-1643; Kroh et al., 2020, Gastroenterol Res Pract, 7347068; Baiges-Gaya et al., 2021, J Nutr Biochem, 89:108559). As shown schematically in FIG. 29A, mice were placed on a standard chow diet (CD) (control group) or a western diet with 10% sucrose in drinking water (WD) for 8 weeks to induce an early NASH phenotype (Kroh et al., 2020, Gastroenterol Res Pract, 7347068). Then, these mice were therapeutically dosed intravenously once a week from week 8 through week 11 with either 2.5 mg/kg Bobcat339 (treatment group) or vehicle (model group) for a total of 13 weeks on diets. Mice were euthanized following a 12 h overnight fasting, and plasma and liver were harvested for analyses.
Then, these mice were therapeutically dosed intravenously once a week from week 8 through week 11 with either 3 mg/kg Bobcat339 (treatment group) or vehicle (model group) for a total of 13 weeks on diets. At the end of the study, mice were euthanized following a 12 h overnight fasting, and plasma and liver were harvested for analyses.
Male C57BL/6J mice of 6-weeks old were randomly divided into three groups, with each containing 5 animals. The control group were fed a standard chow diet (CD). The model group and the treatment group were fed a western diet (WD) (40 kcal % fat, 20 kcal % fructose, and 2 kcal % cholesterol, Research Diets, D09100301) supplemented with 10% sucrose in drinking water provided ad libitum. In the treatment group, Bobcat339 administration was initiated following 8 weeks of WD by tail vein injection at 2.5 mg/kg body weight once a week for 4 weeks. The control group and the model group received vehicle (DMSO) tail vein injections. […] After a total of 13 weeks on diets, mice were sacrificed following a 12 h overnight fasting, and plasma and liver were harvested for analyses.
GTT were performed following 16 h overnight fasting. Each animal received an i.p. injection of 2 g/kg of glucose (Sigma-Aldrich, G5767) in sterile saline. Blood glucose concentrations were measured using Contour next blood glucose meter (Ascensia Diabetes Care) via tail vein bleeding at the indicated time points after injection.
These were assessed using Triglyceride Content Assay Kit (Solarbio, BC0625) and Hydroxyproline Assay Kit (Sigma-Aldrich, MAK008-1KT), respectively.
Mouse liver samples were collected and fixed at 4 °C with 4% of phosphate buffered paraformaldehyde for 24 h. Fixed tissue specimens were embedded in paraffin and cut into […] tissue sections for histopathological analysis. Tissue sections were stained with Hematoxylin-Eosin according to standard protocols. For Sirius Red/Fast Green staining, slides were deparaffinized by heating at 65 °C for 60 min, followed by xylene wash 3 times 5 min each. The slides were then rehydrated in 100%, 90%, 80% and 70% ethanol for 5 min each, followed by ddH2O wash 2 times 5 min each. Then they were incubated in 0.04% Fast Green (Sigma-Aldrich, F7258) in saturated [COMPOUND LEFT OUT] for 15 min, washed with distilled water and then incubated in 0.1% Fast Green and 0.08% Sirius Red (Sigma-Aldrich, 365546) in saturated [COMPOUND LEFT OUT] for 30 min. […]

TET3 = TET3 protein in THP-1 cells; format: cell-based, human; conditions: THP-1, 10 μM, 24 h
Experimental: Bobcat339 Treatment of Cultured Cells Bobcat339 powder (Sigma-Aldrich, SML2611) was freshly dissolved in DMSO at a concentration of 5 mM and filtered through a 0.22 micron. Cells grown at a density of 80-90% were incubated in growth media with vehicle (DMSO) or Bobcat339 at a final concentration of 10 μM for 24 h, followed by RNA and protein extraction.
Cells were homogenized in situ using a pipette tip in 2×SDS-sample buffer with 10% β-mercaptoethanol at RT followed by heating at 100 °C for 5 min with occasional vortexing. The samples were loaded onto a 4-15% gradient SDS gel (Bio-rad, 456-8086) (10 μL/well) and transferred to nitrocellulose membranes, followed by Western blot analysis. The antibodies used were anti-TET3 (diluted at 1:1000, GeneTex, GTX121453 for human; diluted at 1:1000, Active Motif, 61395 for mouse), anti-TET2 (diluted at 1:1000, Proteintech, 21207-1-AP for human/mouse), anti-TGF-β1 (diluted at 1:1000, Abcam, ab215715 for human), anti-Lin28A (diluted at 1:1000, Cell Signaling, 3978S), and HRP-conjugated anti-GAPDH (dilution 1:5000; Proteintech, HRP-60004). The secondary antibody was HRP-linked Anti-rabbit IgG (dilution 1:10,000; Rockland, 611-1322).

[1] = Tolerability of Bobcat339 in mice; format: in vivo, mouse; conditions: disease models in mice

Structure (SMILES): Nc1nc(=O)n(-c2cccc(-c3ccccc3)c2)cc1Cl [Bobcat339, 4-Amino-1-[1,1′-biphenyl]-3-yl-5-chloro-2(1H)-pyrimidinone]
- NAS score (murine model of NASH; 2.5 mg/kg i.v. once a week): reduced NAS scores
- TET3-expressing macrophages in liver (murine model of NASH; 2.5 mg/kg i.v. once a week): depleted after Bobcat339 treatment
- fibrosis stage (murine model of NASH; 2.5 mg/kg i.v. once a week): a significant reduction in both the fibrosis stage and the hydroxyproline content
- histological severity of steatosis and fibrosis (murine model of NASH; 2.5 mg/kg i.v. once a week): significantly reduced the severity of both steatosis and fibrosis
- liver hydroxyproline content (murine model of NASH; 2.5 mg/kg i.v. once a week): a significant reduction in both the fibrosis stage and the hydroxyproline content
- liver triglycerides (murine model of NASH; 2.5 mg/kg i.v. once a week): normalized liver triglycerides
- liver-to-body weight ratio (murine model of NASH; 2.5 mg/kg i.v. once a week): decreased liver-to-body weight ratio
- fasting glucose (murine model of NASH; 2.5 mg/kg i.v. once a week): a significant improvement
- glucose tolerance (murine model of NASH; 2.5 mg/kg i.v. once a week): a significant improvement
- plasma AST (murine model of NASH; 2.5 mg/kg i.v. once a week): normalized this marker
- IL-1b and IL-6 in CD163+ macrophage-enriched areas of liver (murine model of NASH; 3 mg/kg i.v. once a week): reduced the expression of IL-1b and IL-6
- NAS score (murine model of NASH; 3 mg/kg i.v. once a week): reduced NAS scores
- TET3-overexpressing CD163+ macrophages in liver (murine model of NASH; 3 mg/kg i.v. once a week): significantly reduced after Bobcat339 treatment
- fibrosis stage (murine model of NASH; 3 mg/kg i.v. once a week): a significant reduction in both the fibrosis stage and hydroxyproline content
- histological severity of steatosis and fibrosis (murine model of NASH; 3 mg/kg i.v. once a week): significantly reduced the severity of both steatosis and fibrosis
- hydroxyproline content (murine model of NASH; 3 mg/kg i.v. once a week): a significant reduction in both the fibrosis stage and hydroxyproline content
- liver triglycerides (murine model of NASH; 3 mg/kg i.v. once a week): normalized liver triglycerides
- liver-to-body weight ratio (murine model of NASH; 3 mg/kg i.v. once a week): decreased liver-to-body weight ratio
- fasting glucose (murine model of NASH; 3 mg/kg i.v. once a week): a significant improvement
- glucose tolerance (murine model of NASH; 3 mg/kg i.v. once a week): a significant improvement
- plasma AST (murine model of NASH; 3 mg/kg i.v. once a week): normalized this marker
- TET3 protein level (TET3): a decrease in TET3 at the protein level
- side effects / toxicity [1]: without discernible toxicity; also recorded: without discernible side effects; also recorded: no discernible toxicity
